US4382922A, “Peptides affecting gonadal function” (The Salk Institute for Biological Studies, priority 1982, dated 1983)
Values joined by “and” are separate entries in the source; they are usually repeats but may differ in a detail not shown here. Identical values can stand only once.

tested on: dispersed rat pituitary cells; type: cell-based; conditions: not given
Procedure: The peptides prepared in the foregoing Example I are assayed in vitro using a four-day-old primary culture of dispersed rat pituitary cells and compared with LRF. The levels of LH secreted over a 4-hour period in response to the application of peptides are assayed by specific radioimmunoassay for rat LH. The results of testing are expressed in the tables herebelow: […]

Row | Structure (SMILES) | NANOGRAMS OF LH SECRETED/ml. 4 hr.
1 | CC(C)C[C@H](NC(=O)CNC(=O)[C@H](Cc1ccc(O)cc1)NC(=O)[C@H](CO)NC(=O)[C@H](Cc1c[nH]c2ccccc12)NC(=O)[C@H](Cc1c[nH]cn1)NC(=O)[C@@H]1CCC(=O)N1)C(=O)N[C@@H](CCCNC(=N)N)C(=O)N1CCC[C@H]1C(=O)NCC(N)=O [LRF, p-Glu-His-Trp-Ser-Tyr-Gly-Leu-Arg-Pro-Gly-NH2, reference compound] | 898 and 1240 and 1702

same assay, conditions: in vitro LH release, LRF = 1; confidence limits in parentheses

Row | Structure (SMILES) | Potency (relative to LRF)
2 | CCNC(=O)[C@@H]1CCCN1C(=O)[C@H](CCCNC(=N)N)NC(=O)[C@H](CC(C)C)NC(=O)[C@@H](Cc1ccc(OC)cc1)NC(=O)[C@H](Cc1ccc(O)cc1)NC(=O)[C@H](CO)NC(=O)[C@H](Cc1c[nH]c2ccccc12)NC(=O)[C@H](Cc1c[nH]cn1)NC(=O)[C@@H]1CCC(=O)N1 [Peptide No. 2, [OCH3 -D-Phe^6, Pro^9 -NEt]-LRF] | 130(72-242)
3 | CCNC(=O)[C@@H]1CCCN1C(=O)[C@H](CCCNC(=N)N)NC(=O)[C@H](CC(C)C)NC(=O)[C@@H](Cc1c(C)c(C)c(C)c(C)c1C)NC(=O)[C@H](Cc1ccc(O)cc1)NC(=O)[C@H](CO)NC(=O)[C@H](Cc1c[nH]c2ccccc12)NC(=O)[C@H](Cc1c[nH]cn1)NC(=O)[C@@H]1CCC(=O)N1 [Peptide No. 7, [pentamethyl-D-Phe^6, Pro^9 -NEt]-LRF] | 86(50-145)
4 | CCNC(=O)[C@@H]1CCCN1C(=O)[C@H](CCCNC(=N)N)NC(=O)[C@H](CC(C)C)NC(=O)[C@@H](Cc1ccc(OC)cc1)NC(=O)[C@H](Cc1ccc(O)cc1)NC(=O)[C@H](CO)NC(=O)[C@H](Cc1c[nH]c2ccccc12)NC(=O)[C@H](Cc1c[nH]cn1)NC(=O)[C@@H]1CCC(=O)N1 [[OCH3 -D-Phe^6, Pro^9 -NEt]-LRF] | about 130
5 | CCNC(=O)[C@@H]1CCCN1C(=O)[C@H](CCCNC(=N)N)NC(=O)[C@H](CC(C)C)NC(=O)[C@@H](Cc1c(C)c(C)c(C)c(C)c1C)NC(=O)[C@H](Cc1ccc(O)cc1)NC(=O)[C@H](CO)NC(=O)[C@H](Cc1c[nH]c2ccccc12)NC(=O)[C@H](Cc1c[nH]cn1)NC(=O)[C@@H]1CCC(=O)N1 [[pentamethyl-D-Phe^6, Pro^9 -NEt]-LRF] | about 86
6 | CCNC(=O)[C@@H]1CCCN1C(=O)[C@H](CCCNC(=N)N)NC(=O)[C@H](CC(C)C)NC(=O)[C@@H](Cc1ccc([N+](=O)[O-])cc1)NC(=O)[C@H](Cc1ccc(O)cc1)NC(=O)[C@H](CO)NC(=O)[C@H](Cc1c[nH]c2ccccc12)NC(=O)[C@H](Cc1c[nH]cn1)NC(=O)[C@@H]1CCC(=O)N1 [compound 1, [pNO2 -D-Phe^6, Pro^9 -NEt]-LRF] | 141 (83-297)
7 | CCNC(=O)[C@@H]1CCCN1C(=O)[C@H](CCCNC(=N)N)NC(=O)[C@H](CC(C)C)NC(=O)[C@@H](Cc1ccc(C)cc1)NC(=O)[C@H](Cc1ccc(O)cc1)NC(=O)[C@H](CO)NC(=O)[C@H](Cc1c[nH]c2ccccc12)NC(=O)[C@H](Cc1c[nH]cn1)NC(=O)[C@@H]1CCC(=O)N1 [compound 3] | 143 (79-268)
8 | CCNC(=O)[C@@H]1CCCN1C(=O)[C@H](CCCNC(=N)N)NC(=O)[C@H](CC(C)C)NC(=O)[C@@H](Cc1ccc(Cl)cc1)NC(=O)[C@H](Cc1ccc(O)cc1)NC(=O)[C@H](CO)NC(=O)[C@H](Cc1c[nH]c2ccccc12)NC(=O)[C@H](Cc1c[nH]cn1)NC(=O)[C@@H]1CCC(=O)N1 [compound 4] | 59 (29-120)
9 | CCNC(=O)[C@@H]1CCCN1C(=O)[C@H](CCCNC(=N)N)NC(=O)[C@H](CC(C)C)NC(=O)[C@@H](Cc1ccc(Cl)c(Cl)c1)NC(=O)[C@H](Cc1ccc(O)cc1)NC(=O)[C@H](CO)NC(=O)[C@H](Cc1c[nH]c2ccccc12)NC(=O)[C@H](Cc1c[nH]cn1)NC(=O)[C@@H]1CCC(=O)N1 [compound 5] | 38 (16-82)
10 | CCNC(=O)[C@@H]1CCCN1C(=O)[C@H](CCCNC(=N)N)NC(=O)[C@H](CC(C)C)NC(=O)[C@@H](Cc1ccc(NC(C)=O)cc1)NC(=O)[C@H](Cc1ccc(O)cc1)NC(=O)[C@H](CO)NC(=O)[C@H](Cc1c[nH]c2ccccc12)NC(=O)[C@H](Cc1c[nH]cn1)NC(=O)[C@@H]1CCC(=O)N1 [compound 6] | 36 (21-69)
11 | CCNC(=O)[C@@H]1CCCN1C(=O)[C@H](CCCNC(=N)N)NC(=O)[C@H](CC(C)C)NC(=O)[C@@H](Cc1ccccc1)NC(=O)[C@H](Cc1ccc(O)cc1)NC(=O)[C@H](CO)NC(=O)[C@H](Cc1c[nH]c2ccccc12)NC(=O)[C@H](Cc1c[nH]cn1)NC(=O)[C@@H]1CCC(=O)N1 [compound 8] | 78 (46-132)
